Laboratory results as given in US20260001893A1, “SMALL MOLECULE MODULATORS OF STAT6” (Gilead Sciences, Inc., priority 2024, published 2026).

test system: Eotaxin-3 (CCL26) release in human whole blood stimulated with IL-4; experiment: Human whole blood eotaxin-3 assay (IL-4 stimulated eotaxin-3 release); type: cell-based; settings: Homo sapiens, 48 h, human whole blood stimulated with recombinant human IL-4, 48 h; inhibition of eotaxin-3 release; given for test compounds with >80% Emax; geometric mean
Procedure, shortened: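 Lithium-heparin human whole blood was preincubated with compound (4-fold serial dilution, 0.5% DMSO final) for 2 h at 37° C, then stimulated with recombinant human IL-4 at […] final for 48 h. Eotaxin-3 (CCL26) in the supernatant was measured by MSD immunoassay.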

EC50	SMILES
229 nM	CNc1ccn(-c2ccnc3c2cc([C@H](C)N2CC=C(c4c(C)cc(C(=O)N(C)C)cc4F)CC2)n3C)c(=O)c1OC [Example 1m138, (S)-3-fluoro-4-(1-(1-(4-(3-methoxy-4-(methylamino)-2-oxopyridin-1 (2H)-yl)-1-methyl-1H-pyrrolo[2,3-b]pyridin-2-yl)ethyl)-1,2,3,6-tetrahydropyridin-4-yl)-N,N,5-trimethylbenzamide]
50.2 nM	CNc1ccn(-c2ccnc3c2cc(C(C)N2CC=C(c4c(C)cc(C(=O)N(C)C)cc4F)C(F)(F)C2)n3C)c(=O)c1 (stereo not drawn) [Example 1m139, 4-(3,3-difluoro-1-(1-(1-methyl-4-(4-(methylamino)-2-oxopyridin-1 (2H)-yl)-1H-pyrrolo[2,3-b]pyridin-2-yl)ethyl)-1,2,3,6-tetrahydropyridin-4-yl)-3-fluoro-N,N,5-trimethylbenzamide]
16.1 nM	CNc1c(F)cn(-c2ccnc3c2cc([C@H](C)N2CC=C(c4c(C)cc(C(=O)N(C)C)cc4F)CC2)n3C)c(=O)c1F [Example 1m140, (S)-4-(1-(1-(4-(3,5-difluoro-4-(methylamino)-2-oxopyridin-1 (2H)-yl)-1-methyl-1H-pyrrolo[2,3-b]pyridin-2-yl)ethyl)-1,2,3,6-tetrahydropyridin-4-yl)-3-fluoro-N,N,5-trimethylbenzamide]
156 nM	CN(C)C(=O)c1ccc(C2=CCN(Cc3cc4c(-n5ccc6c(c5=O)CCN6)ccnc4n3C)CC2)c(OC(F)(F)F)c1 [Example 1m146, NN-dimethyl-4-(1-((1-methyl-4-(4-oxo-1,2,3,4-tetrahydro-5H-pyrrolo[3,2-c]pyridin-5-yl)-1H-pyrrolo[2,3-b]pyridin-2-yl)methyl)-1,2,3,6-tetrahydropyridin-4-yl)-3-(trifluoromethoxy)benzamide]
60.1 nM	[2H]C([2H])([2H])N(C(=O)c1ccc(C2CCN([C@@H](C)c3cc4c(-n5ccc6[nH]nc(C(F)(F)F)c6c5=O)ccnc4n3C)CC2)cc1)C([2H])([2H])[2H] [Example 1m147, (S)—N,N-bis(methyl-d3)-4-(1-(1-(1-methyl-4-(4-oxo-3-(trifluoromethyl)-1,4-dihydro-5H-pyrazolo[4,3-c]pyridin-5-yl)-1H-pyrrolo[2,3-b]pyridin-2-yl)ethyl)piperidin-4-yl)benzamide]

target: T1, Human STAT6 (truncated, aa122-658, with N-terminal His-tag) (Homo sapiens, UniProt P42226); experiment: Surface plasmon resonance (SPR) assay, binding to human STAT6; settings: Biacore 8K, 25° C, immobilized human STAT6 on CM5 chip, multi-cycle kinetics; geometric mean
T1 construct: Human STAT6 (truncated, aa122-658, with N-terminal His-tag, expressed in insect cells); His-tag (N); made in house; host or cells: insect cells
T1 sequence (P42226 122-658): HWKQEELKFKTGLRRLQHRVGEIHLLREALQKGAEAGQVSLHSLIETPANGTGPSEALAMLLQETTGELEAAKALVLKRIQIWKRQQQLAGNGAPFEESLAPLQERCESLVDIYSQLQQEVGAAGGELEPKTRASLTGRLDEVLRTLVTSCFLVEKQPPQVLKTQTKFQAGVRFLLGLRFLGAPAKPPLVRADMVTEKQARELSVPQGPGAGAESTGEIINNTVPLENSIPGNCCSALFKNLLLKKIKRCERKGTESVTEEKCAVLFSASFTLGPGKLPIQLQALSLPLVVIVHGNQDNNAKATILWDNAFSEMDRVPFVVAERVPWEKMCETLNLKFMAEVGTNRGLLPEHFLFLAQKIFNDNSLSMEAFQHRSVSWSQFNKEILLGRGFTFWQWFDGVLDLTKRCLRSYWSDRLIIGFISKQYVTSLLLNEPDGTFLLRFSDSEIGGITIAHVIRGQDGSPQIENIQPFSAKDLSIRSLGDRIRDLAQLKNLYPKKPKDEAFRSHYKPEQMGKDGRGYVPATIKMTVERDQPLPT
Procedure: Surface Plasmon Resonance Assay
Biacore instruments from the 8K-series (Cytiva) were used, and measurements were performed at 25° C. Human STAT6 (truncated, aa122-658, with N-terminal His-tag, expressed in insect cells) was immobilized in the active flow cells on a CM5 chip using amine-coupling (default settings) at 10 μg/ml in 10 mM acetate buffer pH 5.5, at a contact time of 120-420 sec. and a flow rate of 10 μl/min. Reference flow cells were deactivated using blank immobilization. PBS-P+(Cytiva) supplemented with 2% DMSO was used as running buffer, and solvent correction was applied. Compounds were tested by multi-cycle kinetics injections using a contact time of 60 sec., dissociation time of up to 300 sec., and a flow rate of 30 μl/min.
Solvent-corrected, reference-subtracted and blank-corrected data was processed and binding isotherms were fitted according to a single report point from each sensorgram (Standard: Late binding (5 sec. before injection end); alternative: Earlier report point according to binding profile). Data fitting was done both with unfixed Rmax and with Rmax fixed to the theoretical value* assuming 1:1 binding to allow processing of data from both weak and strong binders as well as to evaluate binding stoichiometry.
Positive controls were run at the beginning, during, and at the end of the screen to evaluate surface activity.
*Equation for calculation of the theoretical Rmax(Theoretical Rmax=(MW Analyte/MW Ligand)×immobilization level).

Kd	SMILES
81.3 nM	CNc1ccn(-c2ccnc3c2cc(CN2CCC(c4ccc(C(=O)N(C)C)cc4)C(F)(F)C2)n3C)c(=O)c1 (single isomer, unassigned) [Example 1f2]
67.5 nM	CNc1ccn(-c2ccnc3c2cc(CN2CC[C@H](c4ccc(C(=O)N(C)C)cc4)[C@H](F)C2)n3C)c(=O)c1 (single isomer, unassigned) [Example 1f6]
338 nM	CNc1ccn(-c2ccnc3c2cc([C@H](C)N2CCC(c4ccc(C(=O)N(C)C)cc4)CC2)n3C)c(=O)c1 (single isomer, unassigned) [Example 1m72]
224 nM	CN(C)C(=O)c1ccc(C2CCN(Cc3cc4c(-n5ncc(N)cc5=O)ccnc4n3C)CC2)cc1 [Example 1ab4, 4-(1-((4-(4-Amino-6-oxopyridazin-1 (6H)-yl)-1-methyl-1H-pyrrolo[2,3-b]pyridin-2-yl)methyl)piperidin-4-yl)-N,N-dimethylbenzamide]
4090 nM	CNc1cc(=O)n(-c2ccnc3c2cc(CN2CCC(c4ccc(C(=O)N(C)C)cc4)CC2)n3C)cn1 [Example 1ac1, N,N-Dimethyl-4-(1-((1-methyl-4-(4-(methylamino)-6-oxopyrimidin-1 (6H)-yl)-1H-pyrrolo[2,3-b]pyridin-2-yl)methyl)piperidin-4-yl)benzamide]
91.8 nM	Cc1cn(-c2ccnc3c2cc(CN2CCC(c4ccc(C(=O)N(C)C)cc4)CC2)n3C)c(=O)nc1N [Example 1ac3, 4-(1-((4-(4-Amino-5-methyl-2-oxopyrimidin-1 (2H)-yl)-1-methyl-1H-pyrrolo[2,3-b]pyridin-2-yl)methyl)piperidin-4-yl)-N,N-dimethylbenzamide]
175 nM	CN(C)C(=O)c1ccc(C2CCN(Cc3cc4c(-n5ccc(NC(=O)OC(C)(C)C)cc5=O)ccnc4n3C)CC2)cc1 [Example 1d2, tert-Butyl N-[1-[2-[[4-[4-(dimethylcarbamoyl)phenyl]-1-piperidyl]methyl]-1-methyl-pyrrolo[2,3-b]pyridin-4-yl]-2-oxo-4-pyridyl]carbamate]
178 nM	CCOC(=O)Nc1ccn(-c2ccnc3c2cc(CN2CCC(c4ccc(C(=O)N(C)C)cc4)CC2)n3C)c(=O)c1 [Example 1d5, Ethyl N-[1-[2-[[4-[4-(dimethylcarbamoyl)phenyl]-1-piperidyl]methyl]-1-methyl-pyrrolo[2,3-b]pyridin-4-yl]-2-oxo-4-pyridyl]carbamate]
152 nM	COC(=O)Nc1ccn(-c2ccnc3c2cc(CN2CCC(c4ccc(C(=O)N(C)C)cc4)CC2)n3C)c(=O)c1 [Example 1d6, Methyl N-[1-[2-[[4-[4-(dimethylcarbamoyl)phenyl]-1-piperidyl]methyl]-1-methyl-pyrrolo[2,3-b]pyridin-4-yl]-2-oxo-4-pyridyl]carbamate]
99.8 nM	CN(C)C(=O)c1ccc(C2CCN(Cc3cc4c(-n5ccc(NCC6CC6)cc5=O)ccnc4n3C)CC2)cc1 [Example 1d7, 4-[1-[[4-[4-(cyclo-Propylmethylamino)-2-oxo-1-pyridyl]-1-methyl-pyrrolo[2,3-b]pyridin-2-yl]methyl]-4-piperidyl]-N,N-dimethyl-benzamide]
4970 nM	CN(C)C(=O)c1ccc(C2CCN(Cc3cc4c(-n5ccc(NC(C)(C)C)cc5=O)ccnc4n3C)CC2)cc1 [Example 1d9, 4-[1-[[4-[4-(tert-Butylamino)-2-oxo-1-pyridyl]-1-methyl-pyrrolo[2,3-b]pyridin-2-yl]methyl]-4-piperidyl]-N,N-dimethyl-benzamide]
22.8 nM	CCN(CC)C(=O)c1ccc(C2CCN(Cc3cc4c(-n5ccc(NC)cc5=O)ccnc4n3C)CC2)cc1 [Example 1d10, N,N-Diethyl-4-[1-[[1-methyl-4-[4-(methylamino)-2-oxo-1-pyridyl]pyrrolo[2,3-b]pyridin-2-yl]methyl]-4-piperidyl]benzamide]
38.4 nM	CCCN(CCC)C(=O)c1ccc(C2CCN(Cc3cc4c(-n5ccc(NC)cc5=O)ccnc4n3C)CC2)cc1 [Example 1d11, N,N-Dipropyl-4-[1-[[1-methyl-4-[4-(methylamino)-2-oxo-1-pyridyl]pyrrolo[2,3-b]pyridin-2-yl]methyl]-4-piperidyl]benzamide]
31 nM	CN(C)C(=O)c1ccc(C2CCN(Cc3cc4c(-n5ccc(NCc6ccccc6)cc5=O)ccnc4n3C)CC2)cc1 [Example 1d12, 4-[1-[[4-[4-(Benzylamino)-2-oxo-1-pyridyl]-1-methyl-pyrrolo[2,3-b]pyridin-2-yl]methyl]-4-piperidyl]-N,N-dimethyl-benzamide]
49 nM	CN(C)C(=O)c1ccc(C2CCN(Cc3cc4c(-n5ccc(NCc6ccc(Cl)cc6)cc5=O)ccnc4n3C)CC2)cc1 [Example 1d13, 4-[1-[[4-[4-[(4-Chlorophenyl)methylamino]-2-oxo-1-pyridyl]-1-methyl-pyrrolo[2,3-b]pyridin-2-yl]methyl]-4-piperidyl]-N,N-dimethyl-benzamide]
124 nM	CN(C)C(=O)c1ccc(C2CCN(Cc3cc4c(-n5ccc(NCc6ccc(F)c(F)c6)cc5=O)ccnc4n3C)CC2)cc1 [Example 1d14, 4-[1-[[4-[4-[(3,4-Difluorophenyl)methylamino]-2-oxo-1-pyridyl]-1-methyl-pyrrolo[2,3-b]pyridin-2-yl]methyl]-4-piperidyl]-N,N-dimethyl-benzamide]
